# According to patent US4663320A, “(2-oxo-1,2,3,5-tetrahydroimidazo[2,1-b]quinoazolinyl)oxyalkylamides, compositions and the use thereof” (Syntex (U.S.A.) Inc., priority 1985, dated 1987):
# Read-outs that look alike come from different tables or passages of the source.
# Key:
# Mongrel dogs = test: Inotropic activity in anesthetized dogs; assay type: in vivo; settings: dog
# Method: Mongrel dogs were anesthetized intravenously with 35 mg/Kg sodium pentobarbital and supplemented as needed. Blood pressure was measured with a Statham pressure transducer via a cannula inserted from a femoral artery into the abdominal aorta. Heart rate was recorded by a cardiotachometer from a lead II electrocardiogram. Right ventricular contractile force was recorded from a Walton-Brodie strain gauge sutured to the right ventricle following a midsternal thoracotomy. A Harvard respirator was used to ventilate the dogs with room air through an endotracheal tube. The dog was bilaterally vagotomized. Following a midline laparotomy, a cannula was sutured into the duodenum for intraduodenal administration of test compound. A femoral vein was cannulated for administration of isoproterenol. All data were recorded on a Beckman R611 Dynograph.
# To assess the responsiveness of each dog, isoproterenol was given intravenously at half-log interval doses from 0.007 to 2.1 or 6.67 μg/Kg. The test compound was then administered intraduodenally, usually at a low dose of 2 mg/Kg and subsequently at higher doses of 6.32 and/or 20 mg/Kg, if necessary. In a few instances, some compounds administered intraduodenally at dose levels from 0.316 to 3.16 mg/Kg.
# [1] = system: Human platelet cyclic AMP phosphodiesterase; test: Cyclic AMP phosphodiesterase assay (human platelet); assay type: biochemical; settings: for IC50: human platelet phosphodiesterase, 1 μM cyclic AMP as substrate; for Relative Potency: relative to theophylline (assigned a value of 1) on human platelet phosphodiesterase
# Method: (§1) The inhibition of cyclic AMP phosphodiesterase activity by the subject compounds was assayed by the method of Filburn and Karn, Analyt. Biochem., 52:505-516 (1973), using 1 μM cyclic AMP as the substrate. Human platelet cyclic AMP phosphodiesterase was obtained from human donors. Platelets were isolated and washed by centrifugation, the membranes ruptured by a sequential freeze-thaw procedure and hypotonic lysis and the soluble enzyme isolated by high speed centrifugation. The enzyme was stored in aliquots at -20° C.
# (§2) This table contains the IC50 values for human platelet phosphodiesterase and IC25 values for rat heart phosphodiesterase.
# B16-BL6 melanoma cells = test: Antimetastatic activity against B-16 Melanoma (B16-BL6); assay type: in vivo, mouse; settings: oral 5 mg/kg every other day, day 20-21, control 10, p ≤ 0.02
# Method: (§3) Mice (female, C57B1/6, 16-18 gm) were injected intravenously with either 7.5×10^4 viable B16-BL6 or B16-F10 melanoma cells, as indicated. The mice were orally treated with vehicle or drug, starting one day after tumor cell injection, and continuing every other day until the mice were sacrificed 20-21 days after tumor cell inoculation. The number of lung metastases was determined as described above, and the results are shown in Table IV (B16-BL6) or Table V (B16-F10).
# Lewis Lung Carcinoma = test: Antimetastatic activity against Lewis Lung Carcinoma (Spontaneous Metastases); assay type: in vivo, mouse; settings: oral 5 mg/kg every other day, day 20-21, p < 0.05
# Method: Mice (female, C57B1/6, 16-18 gm) were inoculated subcutaneously between the inguinal and axillary areas with 0.2 ml of a freshly prepared tumor brei. Mice were treated orally with control vehicle (0.5% carboxymethylcellulose (CMC) or with test compound in suspension in 0.5% CMC. Treatments were initiated one day after tumor implantation, and continued every other day throughout the experiment. 20-21 days after initial implantation of the tumor, mice were sacrificed, weight of the primary tumor was determined, and the number of lung metastases was determined by counting under a disecting microscope. The results are shown in Table III.
# B16-F10 melanoma cells = test: Antimetastatic activity against B-16 Melanoma (B16-F10); assay type: in vivo, mouse; settings: oral 5 mg/kg every other day, day 20-21, control 23, p ≤ 0.01
# Method: as §3
# [2] = system: rat heart phosphodiesterase; test: Cyclic AMP phosphodiesterase inhibition (rat heart); assay type: biochemical
# Method: as §1, §2
# [3] = Acute and delayed toxicity in mice; assay type: in vivo; settings: mouse, in vivo, mice, aqueous suspension (polysorbate 80)
# Method: (§4) Three groups of three male mice (Sim:(ICR)fBR) in a weight range of 20 to 24 grams were used in this study. N-cyclohexyl-N-methyl-4-(2-oxo-1,2,3,5-tetrahydroimidazo[2,1-b]quinazolin- 7-yl)oxy-butyramide was administered intraperitoneally as an aqueous suspension (polysorbate 80).
# (§5) When the test compound was administered orally, also as an aqueous suspension (polysorbate 80), the results are as follows: […]
# male mice (Sim:(ICR)fBR) = test: Acute and delayed toxicity in mice; assay type: in vivo; settings: deaths/animals
# Method: as §4, §5
compound,measurement,setting,value
"CN(C(=O)CCCOc1ccc2c(c1)CN1CC(=O)NC1=N2)C1CCCCC1 [N-cyclohexyl-N-methyl-4-(2-oxo-1,2,3,5-tetrahydroimidazo[2,1-b]quinazolin-7-yl)oxybutyramide]","Blood Pressure, peak effect as % of max. isoproterenol","Mongrel dogs; intraduodenal, 2 mg/kg",25%
same,"Heart Rate, peak effect as % of max. isoproterenol","Mongrel dogs; intraduodenal, 2 mg/kg",30%
same,"Rt. Ventricular Contractile Force, peak effect as % of max. isoproterenol","Mongrel dogs; intraduodenal, 2 mg/kg",48%
same,"Blood Pressure, peak effect as % of max. isoproterenol","Mongrel dogs; intraduodenal, 6.23 mg/kg",96%
same,"Heart Rate, peak effect as % of max. isoproterenol","Mongrel dogs; intraduodenal, 6.23 mg/kg",40%
same,"Rt. Ventricular Contractile Force, peak effect as % of max. isoproterenol","Mongrel dogs; intraduodenal, 6.23 mg/kg",44%
same,IC50,[1],12.5 nM
same,Relative Potency,[1],"21,600"
same,Pulmonary Metastases Median,B16-BL6 melanoma cells,3
same,Pulmonary Metastases Median,Lewis Lung Carcinoma; control 28,10.5
same,Size of Primary Tumor,"Lewis Lung Carcinoma; ± S.E., control 5.1 ± 0.4",3.9 ± 0.4 gm
same,Pulmonary Metastases Median,B16-F10 melanoma cells,1.5
same,Rat Heart IC25,[2],260 nM
same,LD50,"[3]; ip, intraperitoneal, read-out: LD50 (intraperitoneal)",> 1500 mg/kg
same,LD50,"[3]; oral, read-out: LD50 (oral)",> 1500 mg/kg
same,Death,"male mice (Sim:(ICR)fBR); intraperitoneal, 500 mg/Kg",0/3
same,Death,"male mice (Sim:(ICR)fBR); intraperitoneal, 1,000 mg/Kg",0/3
same,Death,"male mice (Sim:(ICR)fBR); intraperitoneal, 1,500 mg/Kg",0/3
same,Death,"male mice (Sim:(ICR)fBR); oral, 500 mg/Kg",0/3
same,Death,"male mice (Sim:(ICR)fBR); oral, 1,000 mg/Kg",0/3
same,Death,"male mice (Sim:(ICR)fBR); oral, 1,500 mg/Kg",0/3
"C[C@@H]1C(=O)NC2=Nc3ccc(OCCCC(=O)N(C)C4CCCCC4)cc3CN21 [N-cyclohexyl-N-methyl-4-(2-oxo-3-D-methyl-1,2,3,5-tetrahydroimidazo[2,1-b]quinazolin-7-yl)oxybutyramide]","Blood Pressure, peak effect as % of max. isoproterenol","Mongrel dogs; i.v., 0.1 mg/kg",82%
same,"Heart Rate, peak effect as % of max. isoproterenol","Mongrel dogs; i.v., 0.1 mg/kg",73%
same,"Rt. Ventricular Contractile Force, peak effect as % of max. isoproterenol","Mongrel dogs; i.v., 0.1 mg/kg",43%
same,"Blood Pressure, peak effect as % of max. isoproterenol","Mongrel dogs; intraduodenal, 0.316 mg/kg",13%
same,"Heart Rate, peak effect as % of max. isoproterenol","Mongrel dogs; intraduodenal, 0.316 mg/kg",18%
same,"Rt. Ventricular Contractile Force, peak effect as % of max. isoproterenol","Mongrel dogs; intraduodenal, 0.316 mg/kg",18%
same,"Blood Pressure, peak effect as % of max. isoproterenol","Mongrel dogs; intraduodenal, 1.0 mg/kg",49%
same,"Heart Rate, peak effect as % of max. isoproterenol","Mongrel dogs; intraduodenal, 1.0 mg/kg",48%
same,"Rt. Ventricular Contractile Force, peak effect as % of max. isoproterenol","Mongrel dogs; intraduodenal, 1.0 mg/kg",50%
same,"Blood Pressure, peak effect as % of max. isoproterenol","Mongrel dogs; intraduodenal, 3.16 mg/kg",82%
same,"Heart Rate, peak effect as % of max. isoproterenol","Mongrel dogs; intraduodenal, 3.16 mg/kg",72%
same,"Rt. Ventricular Contractile Force, peak effect as % of max. isoproterenol","Mongrel dogs; intraduodenal, 3.16 mg/kg",53%
same,IC50,[1],5.4 nM
same,Relative Potency,[1],"50,000"
same,Rat Heart IC25,[2],27 nM
